In PMC6331856, “Carapanolides T–X from Carapa guianensis (Andiroba) Seeds” (Molecules, 2015):
pIC50: −log10 of the molar value. Each block holds one compound with its values, some of them ahead of it.

Key:
NO production = conditions: previous study; read-out: inhibitory activity on NO production IC50; cited from earlier work
[1] = system: NO production in LPS-stimulated RAW264.7 cells; assay: Inhibitory assay of NO production in LPS-stimulated RAW264.7 cells; type: cell-based; conditions: Mus musculus, LPS 5 μg/mL, 24 h treatment
Protocol: (§1) Macrophages may be a potential therapeutic target for inflammatory diseases. Activated macrophages release pro-inflammatory mediators, such as NO, reactive oxygen, interleukin-1 beta, tumor necrosis factor-alpha and other inflammatory mediators, which play important roles in biological defense. […] In the present study, four limonoids and N^G-monomethyl-L-arginine acetate (L-NMMA), an inducible nitric oxide synthase (iNOS) inhibitor, were evaluated for their inhibitory effects on NO production in LPS-stimulated RAW264.7 cells (Figure 5). To determine safe concentrations, the cytotoxicities of these limonoids against RAW 264.7 were assessed by the MTT assay.
An inhibitory assay of nitric oxide production was performed according to a method reported previously with slight modifications. Briefly, RAW264.7 cells (5 × 10^4 cells in 100 μL) were seeded onto 96-well microplates and incubated for 24 h. D-MEM (100 μL) containing test samples (final concentration of 100, 30, 10 or 3 μM) dissolved in DMSO (final concentration 0.2%) and LPS (final concentration of 5 μg/mL) were added. After cells had been treated for 24 h, 50 μL of 0.1% N-(1-naphtyl)ethylenediamine in H2O and 50 μL of 1% sulfanilamide in 5% phosphoric acid were added. After being incubated for 30 min, the absorbance of each well was read at 570 nm using a microplate reader. […]

RAW264.7 cells = assay: RAW264.7 cell proliferation / cytotoxicity by MTT assay; type: cell-based
Protocol: as §1
RAW264.7 cell proliferation was examined according to a method reported previously with few modifications. Briefly, RAW264.7 cells (5 × 10^4 cells in 100 μL) were seeded onto 96-well microplates and incubated for 24 h. D-MEM (100 μL) containing test samples (final concentration of 100, 30, 10 or 3 μM) dissolved in DMSO (final concentration 0.2%) was added. After the cells had been treated for 24 h, the MTT solution was added. After 3 h of incubation, 20% sodium dodecyl sulfate (SDS) in 0.1 M HCl was added to dissolve the formazan produced by the cells. The absorbance of each well was read at 570 nm using a microplate reader. The optical density of vehicle control cells was assumed to be 100%.

[2] = at the effective concentration 10 μM

Compound: CC1(C)C(=O)C=CC2(C)C1CC(=O)C1(C)C2CCC2(C)C(c3ccoc3)OC(=O)C3OC321 (stereo not drawn) [7-deacetoxy-7-oxogedunin]
pIC50 (NO production): 4.89

Compound: CC(=O)O[C@@H]1[C@H](O)C2C(C)(C)C(=O)C=C[C@]2(C)C2CC[C@@]3(C)[C@H](c4ccoc4)OC(=O)[C@H]4O[C@]43[C@@]21C (stereo partly drawn) [6α-hydroxygedunin]
pIC50 (NO production): 4.72

Compound: CC1(C)C(=O)C=CC2(C)C1CC(O)C1(C)C2CCC2(C)C(c3ccoc3)OC(=O)C3OC321 (stereo not drawn) [7-deacetoxy-7-hydroxygedunin]
pIC50 (NO production): 5.08

Compound: carapanolide J
pIC50 (NO production): 4.43

Compound: CC(=O)O[C@@H]1C[C@H]2C(C)(C)C(=O)C=C[C@]2(C)[C@H]2CC[C@@]3(C)[C@H](c4ccoc4)OC(=O)[C@H]4O[C@]43[C@@]21C [gedunin]
pIC50 (NO production): 5.34

melting point: 133 to 136 °C
pIC50 [1]: 4.63
Compound: CC=C(C)C(=O)OC1C2(O)CC3(O)C4=CC(=O)OC(c5ccoc5)C4(C)CCC3C(C)(C2=O)C(CC(=O)OC)C1(C)C (stereo not drawn) [Compound 2, Carapanolide U]
cytotoxicity against RAW264.7 (RAW264.7 cells; at 1–30 μM): did not show cytotoxicities
cytotoxicity against RAW264.7 (RAW264.7 cells; [2]): not at an effective concentration

Compound: 6α-acetoxy-7α-deacetoxy-7α-hydroxygedunin
pIC50 (NO production): 5.03

melting point: 83 to 85 °C
pIC50 [1]: 4.66
Compound: COC(=O)CC1C(C)(C)C(OC(=O)C(C)C)C2(O)CC3(O)C4=CC(=O)OC(c5ccoc5)C4(C)CCC3C1(C)C2=O (stereo not drawn) [Compound 1, Carapanolide T]
cytotoxicity against RAW264.7 (RAW264.7 cells; at 30 μM): low cytotoxicity
cytotoxicity against RAW264.7 (RAW264.7 cells; [2]): not at the effective concentration

Compound: CC(=O)O[C@H]1[C@@H](OC(C)=O)[C@]2(C)[C@H](CC[C@@]3(C)[C@H](c4ccoc4)OC(=O)[C@H]4O[C@@]423)[C@@]2(C)C=CC(=O)C(C)(C)[C@H]12 [6α-acetoxygedunin]
pIC50 (NO production): 5.10
